Measured values reported in patent US5021419A, “Novel pyrazinoxide compound of NF-1616-904 and a pharmaceutical composition containing the same” (Otsuka Pharmaceutical Co., Ltd., priority 1987, dated 1991).

Key:
[1] = system: superoxide radicals (O2^-) release from the peritoneal macrophage cells of guinea pig; assay: Inhibitory effect against superoxide radicals (O2^-) release from peritoneal macrophage cells by FMLP stimulation, cytochrome C reduction (Pharmacological Test-2); type: cell-based; settings: Cavia porcellus, Peritoneal macrophage cell; FMLP 10^-7 M; 2×10^6 cells/ml; OD550; read-out: 50% inhibitory concentration (IC50)
Method: Inhibitory effect of the pyrazinoxide compound of NF-1616-904 against superoxide radicals (O2^-) release from the peritoneal macrophage cells of guinea pig by stimulation:
Mineral oil was intraperitoneally administered to a guinea pig, then 96 hours after the administration, the peritoneal microphage cells were obtained.
Superoxide radicals (O2^-) were determined by means of reduction of cytochrome C according to the procedures described in an article by T. Matsumoto, et al. in Biochemical and Biophysical Research Communications, Vol. 88, No. 3 (1979), pages 974-979.
Thus, the peritoneal macrophage cells were added to make the final concentration of 2×10^6 cells/ml into 1 ml of 80 μM-cytochrome C solution, further the pyrazinoxide compound of NF-1616-904 was added thereto to make the test group sample. On the other hand, water added in place of the pyrazinoxide compound of NF-1616-904 to make the control group sample. Both test group and control group samples were subjected to a pure incubation at 37° C. for 1 minute.
As to the stimulating agent for releasing superoxide radicals (O2^-), formylmethionylleucylphenylalanine (FMLP) was added to make the final concentration of 10^-7 M into the above-mentioned test group sample and control group sample. Then, both samples were subjected to additional reaction for 1 minute. […]

Masugi nephritis = assay: Anti-albuminuria activity in Masugi nephritis (Pharmacological Test-3); type: in vivo, rat; settings: oral; for Ratio of inhibition of albuminuria: 24 hours after NT, versus control; for Albuminuria: urine 24 hours after NT, mean±S.E., six rats, control 120 ± 30
Method: Anti-albuminuria activity of the pyrazinoxide compound of NF-1616-904 in Masugi nephritis
Rat nephrotoxin (hereinafter referred to as "NT") was prepared as follows. Thus, the kidney cortex of a rat was homogenized with an equal amount of physiological saline, then the thus obtained homogenate was admixed with Freund's complete adjuvant (manufacture by Difco Laboratories, Inc., Detroit, Mich., U.S.A.) in the ratio of 1:1. Then, 2 ml of this mixture was administered subcutaneously to a rabbit (body weight: 3.1 kg) to have said rabbit immunized. 1.5 Months after the immunization, the blood was sampled from the heart of said rabbit, and the serum was obtained thereform. The serum thus obtained was inactivated at 56° C. for 30 minutes, and subjected to fractionation by salting out with a aqueous solution saturated with 40% of ammonium sulfate. By sampling of immunoglobulin-γ-globulin (IgG) fraction, the desired NT was obtained.
This test was conducted by using Wisterstrain male rats having 150-160 g body weight. Pyrazinoxide compound of NF-1616-904 of the present invention […] were orally administered forcedly. Additionally, 1 ml of NT was administered intravenously to the tail vein of said rat. On the other hand, in place of pyrazinoxide compound of NF-1616-904, physiological saline was administered to other rats to make the control group.
The total amount of urinary protein being excreted in the urine during 24 hours after the administration of NT was determined by turbidity method using sulfosalicylic acid and bovine serum albumin (BSA) as the reference substance, according to procedures described in an article by F. Kingsbury, et al. in J. Lab. Clin. Med., Vol. 11, (1926), pages 981-989.
The ratio of inhibition of albuminuria (%) in the test group was calculated by referring to the measured value in the control group. The test results are shown in the following Table 2, in which each of the test data are shown at the mean value±S. E. of the six rats used in each of test and control groups.

P388/VCR cells = assay: Effect for decreasing the tolerance against Vincristine in P388/VCR cells (Pharmacological Test-1); type: cell-based; settings: Control group, NF-1616-902 0; 48 hours
Description: Effect for decreasing the tolerance against Vincristine in P388/VCR cells

Row | Structure (SMILES) | IC50 [1] | Ratio of inhibition of albuminuria (Masugi nephritis; 30 mg/kg) | Albuminuria (Masugi nephritis; 30 mg/kg) | Ratio of inhibition of albuminuria (Masugi nephritis; 60 mg/kg) | Albuminuria (Masugi nephritis; 60 mg/kg) | Cytotoxic concentration of Vincristine (P388/VCR cells)
1 | COc1c(Cc2c[nH]c3ccccc23)[nH]c(=O)c(CC(C)C)[n+]1[O-] [NF-1616-904] | 12 µM | 62.5% | 45 ± 16 mg/day | 26.7% | 88 ± 18 mg/day | –
2 | CC[C@]1(O)C[C@H]2CN(CCc3c([nH]c4ccccc34)[C@@](C(=O)OC)(c3cc4c(cc3OC)N(C=O)[C@H]3[C@@](O)(C(=O)OC)[C@H](OC(C)=O)[C@]5(CC)C=CCN6CC[C@]43[C@@H]65)C2)C1 [Vincristine] | – | – | – | – | – | 100 ng/mL
